Test results reported in the supplement of paper PMC10307832.

How the values were obtained:
Assay in all cases: relative viability (nuclei count vs DMSO), 5 days (fraction); higher = more cells survive
Tozasertib + Alpelisib = compound: Cc1cc(Nc2cc(N3CCN(C)CC3)nc(Sc3ccc(NC(=O)C4CC4)cc3)n2)n[nH]1 [Tozasertib] + Cc1nc(NC(=O)N2CCC[C@H]2C(N)=O)sc1-c1ccnc(C(C)(C)C(F)(F)F)c1 [Alpelisib] (partner 2 µM)
In short: (§1)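 Each reported value is a median over duplicate plates. It expresses relative viability: treated-well nuclei count divided by vehicle-well nuclei count. Lung cancer cell lines in 1536-well plates were dosed by pin tool a day after seeding, alone with one drug or with a fixed anchor-drug dose plus five library-drug doses (not always all listed) in √10 steps, and nuclei were counted after 5 days.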

Tozasertib + Linsitinib = compound: Cc1cc(Nc2cc(N3CCN(C)CC3)nc(Sc3ccc(NC(=O)C4CC4)cc3)n2)n[nH]1 [Tozasertib] + C[C@]1(O)C[C@@H](c2nc(-c3ccc4ccc(-c5ccccc5)nc4c3)c3c(N)nccn32)C1 [Linsitinib] (partner 1 µM)
In short: as §1

Tozasertib + Lapatinib = compound: Cc1cc(Nc2cc(N3CCN(C)CC3)nc(Sc3ccc(NC(=O)C4CC4)cc3)n2)n[nH]1 [Tozasertib] + CS(=O)(=O)CCNCc1ccc(-c2ccc3ncnc(Nc4ccc(OCc5cccc(F)c5)c(Cl)c4)c3c2)o1 [Lapatinib] (partner 2 µM)
In short: as §1

Tozasertib + AZD7762 = compound: Cc1cc(Nc2cc(N3CCN(C)CC3)nc(Sc3ccc(NC(=O)C4CC4)cc3)n2)n[nH]1 [Tozasertib] + NC(=O)Nc1cc(-c2cccc(F)c2)sc1C(=O)N[C@H]1CCCNC1 [AZD7762] (partner 0.2 µM)
In short: as §1

Tozasertib + Dasatinib = compound: Cc1cc(Nc2cc(N3CCN(C)CC3)nc(Sc3ccc(NC(=O)C4CC4)cc3)n2)n[nH]1 [Tozasertib] + Cc1nc(Nc2ncc(C(=O)Nc3c(C)cccc3Cl)s2)cc(N2CCN(CCO)CC2)n1 [Dasatinib] (partner 0.075 µM)
In short: as §1

| Cell Line | relative viability (Tozasertib + Alpelisib; first compound 0.004 µM) | relative viability (Tozasertib + Alpelisib; first compound 0.01265 µM) | relative viability (Tozasertib + Alpelisib; first compound 0.04 µM) | relative viability (Tozasertib + Alpelisib; first compound 0.1265 µM) | relative viability (Tozasertib + Linsitinib; first compound 0.004 µM) | relative viability (Tozasertib + Linsitinib; first compound 0.01265 µM) | relative viability (Tozasertib + Linsitinib; first compound 0.04 µM) | relative viability (Tozasertib + Linsitinib; first compound 0.1265 µM) | relative viability (Tozasertib + Lapatinib; first compound 0.004 µM) | relative viability (Tozasertib + Lapatinib; first compound 0.01265 µM) | relative viability (Tozasertib + Lapatinib; first compound 0.04 µM) | relative viability (Tozasertib + Lapatinib; first compound 0.1265 µM) | relative viability (Tozasertib + AZD7762; first compound 0.004 µM) | relative viability (Tozasertib + AZD7762; first compound 0.01265 µM) | relative viability (Tozasertib + AZD7762; first compound 0.04 µM) | relative viability (Tozasertib + AZD7762; first compound 0.1265 µM) | relative viability (Tozasertib + Dasatinib; first compound 0.004 µM) | relative viability (Tozasertib + Dasatinib; first compound 0.01265 µM) | relative viability (Tozasertib + Dasatinib; first compound 0.04 µM) | relative viability (Tozasertib + Dasatinib; first compound 0.1265 µM) |
| --- | --- | --- | --- | --- | --- | --- | --- | --- | --- | --- | --- | --- | --- | --- | --- | --- | --- | --- | --- | --- |
| EKVX | 0.779 | 0.846 | 1.01 | 0.878 | 0.812 | 0.975 | 1.18 | 0.913 | 0.189 | 0.167 | 0.227 | 0.185 | 0.703 | 0.584 | 0.572 | 0.236 | 0.494 | 0.606 | 0.471 | – |
| EMC-BAC-2 | 0.771 | – | 0.724 | 0.428 | 0.867 | 0.79 | – | 0.611 | 0.851 | – | 0.908 | 0.567 | 1.15 | 1.12 | 0.93 | 0.47 | 0.314 | 0.321 | 0.342 | 0.259 |
| EPLC-272H | 0.845 | 0.789 | 1.11 | – | 1.13 | 1.18 | 1.12 | – | 0.958 | – | 0.891 | – | 0.147 | 0.249 | 0.192 | 0.301 | 0.313 | 0.399 | 0.39 | 0.291 |
| H3255 | 0.592 | 0.654 | 0.762 | 0.658 | 0.862 | 0.758 | 1.04 | 0.817 | 0.256 | 0.229 | 0.236 | 0.228 | 0.837 | 0.786 | 0.884 | 0.684 | 0.37 | 0.409 | 0.339 | 0.304 |
| HARA | 0.955 | 0.795 | 0.994 | 0.305 | 1 | – | 1.01 | 0.374 | – | 0.695 | 1.02 | 0.246 | 0.353 | 0.247 | 0.209 | 0.123 | 0.286 | 0.281 | 0.336 | 0.303 |
| HCC-15 | 0.942 | 0.841 | – | 0.728 | 0.893 | 0.778 | 0.882 | 0.734 | 0.992 | 0.852 | 0.92 | 0.751 | 1.49 | 1.06 | 1.26 | 0.964 | 0.61 | 0.532 | 0.624 | 0.319 |
| HCC-44 | 0.779 | 0.773 | 0.836 | – | 0.653 | 0.606 | 0.691 | 0.546 | 1.06 | 1.02 | 1.06 | 0.862 | 1.05 | 0.994 | 0.929 | 0.845 | – | – | – | – |
| HCC-78 | 0.38 | 0.305 | 0.46 | 0.241 | 0.661 | 0.452 | 0.588 | 0.439 | 0.985 | 0.58 | – | 0.643 | 0.806 | 0.519 | 0.668 | 0.477 | 0.541 | 0.316 | 0.469 | 0.322 |
| HCC-366 | 0.37 | 0.476 | 0.558 | 0.13 | 0.766 | 0.6 | 0.755 | 0.101 | 1.1 | 0.992 | – | 0.0536 | 0.355 | 0.282 | 0.337 | 0.203 | 0.612 | 0.682 | 0.677 | 0.629 |
